According to article PMC3658936, “Comparison of cyclic RGD peptides for αvβ3 integrin detection in a rat model of myocardial infarction” (EJNMMI Research, 2013):
Like-named read-outs stand apart in the source and are kept apart here. Blank lines part the entries; values can stand above or below the compound they belong to.

How the values were obtained:
αvβ3 integrin [1] = experiment: in vivo; settings: for tissue uptake per volume at 1.375 h: male, Lewis, in vivo, iv, total radioactivity
Procedure: Permanent ligation of the left anterior descending coronary artery was performed, as previously described in 34 healthy male Lewis rats (Charles Rivers Laboratories, Sulzfeld, Germany) aged 8 to 10 weeks to induce MI. Briefly, the rats were anaesthetised with intramuscular administration of midazolam 5 mg/kg (Dormicum®, Roche; Grenzach-Wyhlen, Germany), medetomidin 0.5 mg/kg (Dormitor®, Pfizer, Karlsruhe, Germany) and fentanyl 0.05 mg/kg (Ratiopharm, Ulm, Germany) and connected to a rodent ventilator. The heart was exposed through a left lateral thoracotomy of the fourth intercostal space, and the left anterior descending (LAD) artery was ligated near to its origin (2 to 3 mm from the tip of the left atrium). Two rats underwent sham operation, which consisted of the same procedures except that the LAD artery suture was not tightened. The rats were treated with 0.05 mg/kg buprenorphin (Temgesic®, Essex, Germany) and 4 mg/kg carprofen (Rimadyl, Pfizer, Germany) for 72 h post surgery. The study protocols were approved by the regional governmental commission for animal protection (Regierung von Oberbayern, Munich, Germany).
A subset of animals (n = 7) was imaged using a small-animal PET/CT scanner (Inveon, Siemens Medical Solutions, Knoxville, TN, USA). The rats were anaesthetised using 1.5% isoflurane. Breathing was monitored and temperature was maintained using a heating pad throughout the imaging procedures. The rats were injected with 37 MBq of [^13N]NH3 via tail a vein catheter, and perfusion images were acquired for 15 min starting at the time of injection. A CT scan was performed for anatomical localisation. The animals were left anaesthetised in the scanner, and 60 min later, the animals were injected with either ^68Ga-NODAGA-RGD (72 MBq, n = 4) or ^68Ga-TRAP(RGD)3 (63 MBq, n = 3) via the tail vein. […]
The ^68Ga- and ^13N-PET images were fused, and the uptake was visualised using the Inveon Research Workplace (Siemens, Knoxville, TN, USA). […] The mean radioactivity concentration within the ROI was expressed as the percentage of injected dose per cubic centimetre (% ID/cc).

[2] = Ex vivo biodistribution in tissues by gamma counting; parameters: species or system rat; settings: for tissue uptake at 1.5 h: Lewis, rat, in vivo, total radioactivity
Procedure: Rats were anesthetised using 1.5% isoflurane and were injected via tail vein catheter with ^18F-galacto-RGD (37 MBq, n = 9), ^68Ga-NODAGA-RGD (69 MBq, n = 10) or of ^68Ga-TRAP(RGD)3 (54 MBq, n = 12). Rats were kept under anaesthesia in a warmed bed until euthanized after 90 min using intravenous injection of 150 mg/kg of pentobarbiturate (Narcoren®, Merial, Rohrdorf, Germany). The heart was excised and cut transaxially at the location of the infarct. The apical part, containing both infarct and non-affected remote myocardium, was processed for sectioning for autoradiography as described below.
Tissue samples (remote myocardium, apical part of myocardium, femoral muscle, operation wound and the connective tissue contralateral to the wound, spleen, liver, kidney, urine and blood) were dissected, and the weights of the tissue, urine, blood and serum samples were measured and their activity was detected using a gamma counter (1480 Wizard, PerkinElmer Wallac, Turku, Finland).

αvβ3 integrin [3] = experiment: Ex vivo autoradiography of RGD tracer uptake in the myocardium (infarct vs. remote); settings: rat MI 1 week after LAD ligation, 90 min p.i., mean ± SD
Procedure: Permanent ligation of the left anterior descending coronary artery was performed, as previously described in 34 healthy male Lewis rats (Charles Rivers Laboratories, Sulzfeld, Germany) aged 8 to 10 weeks to induce MI. Briefly, the rats were anaesthetised with intramuscular administration of midazolam 5 mg/kg (Dormicum®, Roche; Grenzach-Wyhlen, Germany), medetomidin 0.5 mg/kg (Dormitor®, Pfizer, Karlsruhe, Germany) and fentanyl 0.05 mg/kg (Ratiopharm, Ulm, Germany) and connected to a rodent ventilator. […]
The excised hearts were frozen and embedded in Tissue Tek® mounting media (Sakura Finetek Europe B.V., Alphen aan den Rijn, the Netherlands). […] After an overnight exposure, the imaging plates were scanned with an image plate scanner (CR 35 BIO, Dürr Medical, Raytest Isotopenmeßgeräte GmbH, Germany; internal resolution of 25 μm), and the images were analysed for background-corrected count densities (PSL/mm^2) with an image analysis programme (AIDA Image Analyser, Raytest Isotopenmeßgeräte, Germany). […]
(§1) After careful co-registration of the autoradiographs and HE histological images, regional tracer uptake was analysed in the following two regions: (1) the infarcted myocardium containing the border zone as assessed after HE staining and (2) the remote, non-affected myocardium. […]

αvβ3 integrin [4] = tested on: αvβ3 integrin; parameters: method as in PMID 22147338, PMID 22444238; settings: competitive displacement assay on M21 human melanoma cells; cited from earlier work
αvβ3 integrin [5] = experiment: Specificity of RGD binding: pre-injection of a blocking dose of cilengitide, autoradiography; format: in vivo, rat; settings: cilengitide 18 mg/kg 10 min prior to tracer injection
Procedure: The specificity of the RGD binding was studied on three rats with pre-injection of a blocking dose of cilengitide (18 mg/kg = 30.6 μmol/kg) 10 min prior to the tracer injection.
The excised hearts were frozen and embedded in Tissue Tek® mounting media (Sakura Finetek Europe B.V., Alphen aan den Rijn, the Netherlands). Serial LV short-axis cryosections of 20-μm thickness were obtained. Similar sections of muscle and spleen samples of the same rat were processed and used as negative and positive controls. After quick air drying, the sections were exposed to an imaging plate (Kodak Storage Phosphor screen GP, Eastman Kodak Company, Rochester, NY, USA). After an overnight exposure, the imaging plates were scanned with an image plate scanner (CR 35 BIO, Dürr Medical, Raytest Isotopenmeßgeräte GmbH, Germany; internal resolution of 25 μm), and the images were analysed for background-corrected count densities (PSL/mm^2) with an image analysis programme (AIDA Image Analyser, Raytest Isotopenmeßgeräte, Germany). […]
as §1

tissue uptake per volume at 1.375 h (αvβ3 integrin [1]; rat): 0.17 ± 0.03 %ID/mL
tissue uptake at 1.5 h ([2]; Biodistribution: Apical myocardium): 0.156 ± 0.06 %ID/g
tissue uptake at 1.5 h ([2]; Biodistribution: Blood): 0.058 ± 0.02 %ID/g
tissue uptake at 1.5 h ([2]; Biodistribution: Connective tissue): 0.11 ± 0.05 %ID/g
tissue uptake at 1.5 h ([2]; Biodistribution: Kidney): 1.1 ± 0.7 %ID/g
tissue uptake at 1.5 h ([2]; Biodistribution: Liver): 0.23 ± 0.17 %ID/g
tissue uptake at 1.5 h ([2]; Biodistribution: Muscle): 0.035 ± 0.01 %ID/g
tissue uptake at 1.5 h ([2]; Biodistribution: Remote myocardium): 0.071 ± 0.03 %ID/g
tissue uptake at 1.5 h ([2]; Biodistribution: Serum): 0.094 ± 0.05 %ID/g
tissue uptake at 1.5 h ([2]; Biodistribution: Spleen): 0.246 ± 0.16 %ID/g
tissue uptake at 1.5 h ([2]; Biodistribution: Urine): 20.2 ± 6.4 %ID/g
tissue uptake at 1.5 h ([2]; Biodistribution: Wound): 0.27 ± 0.24 %ID/g
Compound: N=C(N)NCCC[C@@H]1NC(=O)[C@H](CCCCNC(=O)CCC(C(=O)O)N2CCN(CC(=O)O)CCN(CC(=O)O)CC2)NC(=O)[C@@H](Cc2ccc(O)cc2)NC(=O)[C@H](CC(=O)O)NC(=O)CNC1=O (stereo partly shown) [^68Ga-NODAGA-RGD, ^68Ga-NODAGA-cyclo(RGDyK), metal not drawn]

Compound: N=C(N)NCCC[C@@H]1NC(=O)[C@H](CCCCNC(=O)CCP(=O)(O)CN2CCN(CP(=O)(O)CCC(=O)NCCCC[C@@H]3NC(=O)[C@@H](Cc4ccccc4)NC(=O)[C@H](CC(=O)O)NC(=O)CNC(=O)[C@H](CCCNC(=N)N)NC3=O)CCN(CP(=O)(O)CCC(=O)NCCCC[C@@H]3NC(=O)[C@@H](Cc4ccccc4)NC(=O)[C@H](CC(=O)O)NC(=O)CNC(=O)[C@H](CCCNC(=N)N)NC3=O)CC2)NC(=O)[C@@H](Cc2ccccc2)NC(=O)[C@H](CC(=O)O)NC(=O)CNC1=O [^68Ga-TRAP(RGD)3, ^68Ga-TRAP(cyclo(RGDfK))3, metal not drawn]
infarct vs. remote PSL/mm2 uptake ratio (αvβ3 integrin [3]): 4.1 ± 0.7
infarct-to-remote ratio (PET) (αvβ3 integrin [1]; PET image-derived, rat MI 1 week): 1.9
tissue uptake per volume at 1.375 h (αvβ3 integrin [1]; PET, 82.5 min after injection, rat MI 1 week, read-out: image-derived average uptake in the myocardium, infarct area): 0.25 ± 0.02 %ID/mL
tissue uptake at 1.5 h ([2]; 90 min p.i., mean ± SD, contains both infarct and remote areas, read-out: Biodistribution: Apical myocardium): 0.353 ± 0.1 %ID/g
tissue uptake at 1.5 h ([2]; 90 min p.i., mean ± SD, contralateral to the wound, read-out: Biodistribution: Connective tissue): 0.19 ± 0.08 %ID/g
tissue uptake at 1.5 h ([2]; 90 min p.i., mean ± SD, read-out: Biodistribution: Blood): 0.101 ± 0.07 %ID/g
tissue uptake at 1.5 h ([2]; 90 min p.i., mean ± SD, read-out: Biodistribution: Kidney): 1.45 ± 0.51 %ID/g
tissue uptake at 1.5 h ([2]; 90 min p.i., mean ± SD, read-out: Biodistribution: Liver): 0.524 ± 0.61 %ID/g
tissue uptake at 1.5 h ([2]; 90 min p.i., mean ± SD, read-out: Biodistribution: Muscle): 0.066 ± 0.03 %ID/g
tissue uptake at 1.5 h ([2]; 90 min p.i., mean ± SD, read-out: Biodistribution: Remote myocardium): 0.154 ± 0.09 %ID/g
tissue uptake at 1.5 h ([2]; 90 min p.i., mean ± SD, read-out: Biodistribution: Serum): 0.166 ± 0.12 %ID/g
tissue uptake at 1.5 h ([2]; 90 min p.i., mean ± SD, read-out: Biodistribution: Spleen): 0.415 ± 0.3 %ID/g
tissue uptake at 1.5 h ([2]; 90 min p.i., mean ± SD, read-out: Biodistribution: Urine): 35.1 ± 22.4 %ID/g
tissue uptake at 1.5 h ([2]; 90 min p.i., mean ± SD, read-out: Biodistribution: Wound): 0.256 ± 0.12 %ID/g
apical-to-remote ratio ([2]; gamma counting, apical part vs. remote myocardium tissue sample): 2.1
IC50 (αvβ3 integrin [4]): 44 nM

Compound: ^18F-galacto-cyclo(RGDfK) [^18F-galacto-RGD, reference compound]
infarct vs. remote PSL/mm2 uptake ratio (αvβ3 integrin [3]): 4.7 ± 0.8
IC50 (αvβ3 integrin [4]): 319 nM

Compound: cilengitide
effect of pre-injection of high-dose cilengitide on tracer uptake (αvβ3 integrin [5]): reduced the uptake in the myocardium and also in the spleen
